Laboratory results: the supplement of paper PMC10307832

Tests used:
Assay in all cases: relative viability (nuclei count vs DMSO), 5 days (fraction); higher = more cells survive
[1] = compound: CC1=CC=C(C=C1)C(=O)CN2C3=C(CCCC3)SC2=N [Pifithrin_alpha] + O=C(c1cc(Cc2n[nH]c(=O)c3ccccc23)ccc1F)N1CCN(C(=O)C2CC2)CC1 [Olaparib] (partner 8 µM)
Outline: (§1)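 Relative viability divides the nuclei count in treated wells by that in vehicle wells. Lung cancer cell lines were seeded in 1536-well plates, dosed by pin tool the next day, and fixed and stained after 5 days in one step with final 0.05% Triton X-100, 1% formaldehyde and 1 ug/ml Hoechst. Dosing was a single drug or a fixed anchor-drug dose plus five library-drug doses (not always all listed) in √10 steps, and values are medians of duplicate plates imaged at 4×.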

Axitinib + Phenformin = compound: CNC(=O)c1ccccc1Sc1ccc2c(/C=C/c3ccccn3)n[nH]c2c1 [Axitinib] + N=C(N)NC(=N)NCCc1ccccc1 [Phenformin] (partner 250 µM)
Outline: as §1

Axitinib + Pemetrexed = compound: CNC(=O)c1ccccc1Sc1ccc2c(/C=C/c3ccccn3)n[nH]c2c1 [Axitinib] + Nc1nc2[nH]cc(CCc3ccc(C(=O)N[C@@H](CCC(=O)O)C(=O)O)cc3)c2c(=O)[nH]1 [Pemetrexed] (partner 0.2 µM)
Outline: as §1

Axitinib + Olaparib = compound: CNC(=O)c1ccccc1Sc1ccc2c(/C=C/c3ccccn3)n[nH]c2c1 [Axitinib] + O=C(c1cc(Cc2n[nH]c(=O)c3ccccc23)ccc1F)N1CCN(C(=O)C2CC2)CC1 [Olaparib] (partner 8 µM)
Outline: as §1

Cell Line	relative viability ([1]; first compound 1 µM)	relative viability ([1]; first compound 3.162 µM)	relative viability ([1]; first compound 10 µM)	relative viability ([1]; first compound 31.62 µM)	relative viability ([1]; first compound 100 µM)	relative viability (Axitinib + Phenformin; first compound 0.005 µM)	relative viability (Axitinib + Phenformin; first compound 0.01581 µM)	relative viability (Axitinib + Phenformin; first compound 0.05 µM)	relative viability (Axitinib + Phenformin; first compound 0.1581 µM)	relative viability (Axitinib + Phenformin; first compound 0.5 µM)	relative viability (Axitinib + Pemetrexed; first compound 0.005 µM)	relative viability (Axitinib + Pemetrexed; first compound 0.01581 µM)	relative viability (Axitinib + Pemetrexed; first compound 0.05 µM)	relative viability (Axitinib + Pemetrexed; first compound 0.1581 µM)	relative viability (Axitinib + Pemetrexed; first compound 0.5 µM)	relative viability (Axitinib + Olaparib; first compound 0.005 µM)	relative viability (Axitinib + Olaparib; first compound 0.01581 µM)	relative viability (Axitinib + Olaparib; first compound 0.05 µM)	relative viability (Axitinib + Olaparib; first compound 0.1581 µM)	relative viability (Axitinib + Olaparib; first compound 0.5 µM)
NCI-H1650	0.596	1.09	0.373	0.298	0.408	0.488	0.309	0.553	0.352	0.536	0.415	0.352	0.361	0.436	0.408	0.876	0.712	0.797	0.91	0.89
EMC-BAC-2	0.419	0.412	–	0.252	0.351	0.552	0.535	0.483	0.547	0.57	0.476	0.464	0.456	0.461	0.518	0.5	0.542	0.516	0.512	0.508
LCLC-103H	0.772	0.817	0.644	0.52	0.686	0.32	0.341	0.345	0.356	0.312	0.507	0.443	0.496	0.477	0.526	0.803	0.784	0.753	0.881	0.824
BEN	1.01	1.13	1.01	0.562	1.01	0.268	0.29	0.246	0.236	0.262	0.73	0.858	0.801	0.859	0.751	1.17	1.42	0.903	1.02	1.07
NCI-H1755	0.789	0.747	0.734	0.544	0.73	0.62	0.613	0.604	0.634	0.658	0.438	0.448	0.403	0.509	0.403	0.897	0.867	0.852	0.847	0.852
LU99A	0.248	0.242	0.277	–	0.236	0.784	0.823	0.981	0.88	0.91	0.196	0.203	0.182	0.175	0.204	0.272	0.287	0.273	0.286	0.304
NCI-H1793	1.01	0.757	0.798	0.365	0.649	0.393	0.4	0.415	0.358	0.328	1.04	0.568	1.01	0.821	0.791	1	0.715	0.874	0.793	1.05
NCI-H460	0.456	0.343	0.257	–	0.21	0.553	0.515	0.583	0.518	0.678	0.0553	0.0645	0.0676	0.0593	0.0611	0.411	0.402	0.514	0.379	0.498
SK-LU-1	0.418	0.486	0.453	0.354	0.457	0.601	0.597	0.622	0.558	0.752	1.01	1	1.09	1.03	1.13	0.454	0.476	0.525	0.448	0.477
HARA	0.659	0.931	1	0.305	0.808	0.421	0.412	0.493	0.392	0.488	0.231	0.265	0.309	0.26	0.258	1.02	0.88	0.835	0.95	0.921
